Laboratory results as given in patent publication US20220378706A1, “PHARMACEUTICAL COMPOSITION COMPRISING PDE9 INHIBITOR” (Eisai R&D Management Co., Ltd., priority 2017, published 2022).

Tests used:
[1] = Single dose clinical study Parts A and C: urine Compound A pharmacokinetics; type: in vivo, human; conditions: for CL renal: human, po
Procedure: Urine Compound A concentrations were analyzed predose and up to 96 hours postdose.
Plasma, urine and CSF concentrations of Compound A were measured using validated liquid chromatography mass spectrometry/mass spectrometry (LC MS/MS) assay methods. CSF concentrations of cGMP were measured using a validated LC-MS/MS assay method.
The following PK parameters were calculated for Compound A: […]

[2] = Single dose clinical study: safety assessments (adverse events); type: in vivo, human; conditions: for incidence of any TEAEs: Part B 100 mg Cohort
Description: Safety assessments consisted of monitoring and recording all adverse events (AEs) and serious adverse events (SAEs); laboratory evaluation for hematology, blood chemistry, and urine values; periodic measurement of vital signs (including orthostatic changes in blood pressure [BP] and heart rate [HR]) and electrocardiograms (ECGs); and the performance of physical examinations.
Safety data evaluated included AEs, clinical laboratory results, vital signs, and ECGs. Treatment emergent adverse events (TEAEs) were summarized by presenting the incidence of AEs for each cohort and dose group. For the laboratory, vital signs, and ECG data in all cohorts in any treatment period, the baseline was the values recorded immediately prior to dosing with study drug in that treatment period.

[3] = Elderly subjects Part C, single oral 100 mg
[4] = healthy adults Part A, single oral 10 mg
[5] = healthy adults Part A, single oral 25 mg
[6] = healthy adults Part A, single oral 50 mg
[7] = healthy adults Part A, single oral 100 mg
[8] = healthy adults Part A, single oral 200 mg
[9] = healthy adults Part A, single oral 400 mg
[10] = healthy adults Part A, single oral 800 mg
[11] = healthy adults Part A, single oral 1200 mg

## COc1ncc(C)c(-c2ccc3c(c2)[nH]c(=O)c2cnn([C@H]4CCOC4)c23)c1C [Compound A, (S)-7-(2-methoxy-3,5-dimethylpyridin-4-yl)-1-(tetrahydrofuran-3-yl)-1H-pyrazolo[4,3-c]quin olin-4(5H)-one]
[1]; [3]
  Ae(0-96 h) GM: 0.228 mg
  Fe(0-96 h) GM: 0.228%
[1]; [4]
  Ae(0-96 h) GM: 0.0218 mg
  Fe(0-96 h) GM: 0.218%
[1]; [5]
  Ae(0-96 h) GM: 0.0476 mg
  Fe(0-96 h) GM: 0.190%
[1]; [6]
  Ae(0-96 h) GM: 0.104 mg
  Fe(0-96 h) GM: 0.208%
[1]; [7]
  Ae(0-96 h) GM: 0.295 mg
  Fe(0-96 h) GM: 0.295%
[1]; [8]
  Ae(0-96 h) GM: 0.177 mg
  Fe(0-96 h) GM: 0.0885%
[1]; [9]
  Ae(0-96 h) GM: 0.615 mg
  Fe(0-96 h) GM: 0.154%
[1]; [10]
  Ae(0-96 h) GM: 0.762 mg
  Fe(0-96 h) GM: 0.0953%
[1]; [11]
  Ae(0-96 h) GM: 1.18 mg
  Fe(0-96 h) GM: 0.0979%
[1]; 10 mg, healthy adults Part A, single oral 10 mg
  CL renal: 0.228 mL/min
[1]; 25 mg, healthy adults Part A, single oral 25 mg
  CL renal: 0.202 mL/min
[1]; 50 mg, healthy adults Part A, single oral 50 mg
  CL renal: 0.268 mL/min
[1]; 100 mg, Elderly subjects Part C, single oral 100 mg
  CL renal: 0.22 mL/min
[1]; 100 mg, healthy adults Part A, single oral 100 mg
  CL renal: 0.37 mL/min
[1]; 200 mg, healthy adults Part A, single oral 200 mg
  CL renal: 0.17 mL/min
[1]; 400 mg, healthy adults Part A, single oral 400 mg
  CL renal: 0.337 mL/min
[1]; 800 mg, healthy adults Part A, single oral 800 mg
  CL renal: 0.212 mL/min
[1]; 1200 mg, healthy adults Part A, single oral 1200 mg
  CL renal: 0.287 mL/min
[2]; Part A healthy adult subjects, single oral doses 10 to 1200 mg
  tolerability: well tolerated
[2]; Part B
  TEAE back pain: 20.8%
  TEAE dizziness: 16.7%
  TEAE headache: 29.2%
  TEAE musculoskeletal stiffness: 20.8%
  TEAE nausea: 12.5%
  TEAE pain in extremity: 8.3%
  TEAE post lumbar puncture syndrome: 37.5%
  TEAE procedural nausea: 8.3%
  TEAE procedural vomiting: 8.3%
  TEAE vomiting: 20.8%
[2]; fasted state
  incidence of any TEAEs: 66.7%
[2]; fed state
  incidence of any TEAEs: 50%
[2]; Part B healthy adults with serial CSF sampling, single oral doses 50 to 400 mg
  tolerability: well tolerated
[2]; Part B, both treatment periods, all doses
  subjects with at least 1 TEAE: 83.3%
[2]; Part C healthy elderly subjects, single dose 100 mg
  tolerability: well tolerated
[2]; Part C healthy elderly, 100 mg
  subjects with at least 1 TEAE: 16.7%
[2]; Part D
  TEAE headache: 16.7%
[2]; Part D healthy Japanese adult subjects, single oral doses 25 to 400 mg
  tolerability: well tolerated
[2]; Part D, all doses
  subjects with at least 1 TEAE: 38.9%
[2]; Parts A and C
  TEAE dizziness: 5.6%
  TEAE headache: 11.6%
  TEAE increase in orthostatic heart rate response: 3.7%
  TEAE insomnia: 5.6%
  TEAE paresthesia: 3.7%
  TEAE postural orthostatic tachycardia: 5.6%
  deaths or SAEs: no deaths or SAEs
[2]; Parts A and C, all doses
  subjects with at least 1 TEAE: 42.6%
[2]; single oral doses 10 to 1200 mg, healthy adults
  maximum tolerated dose: not reached
